{
  "source": "patent US12690590B2",
  "about": "“Phenyl compound and plant disease control method” (SUMITOMO CHEMICAL COMPANY, LIMITED, priority 2020, dated 2026)",
  "key": {"Microsphaera diffusa": {"system": "Microsphaera diffusa", "assay": "Test Example 10: test for controlling soybean powdery mildew, foliar spray after inoculation", "assay_type": "in vivo", "conditions": "200 ppm foliar spray 2 days after inoculation, soybeans (Kurosengoku)"}, "Phytophthora infestans": {"system": "Phytophthora infestans", "assay_type": "in vivo", "conditions": "200 ppm foliar spray, tomatoes (Patio), inoculated 1 day after spraying"}},
  "data": [
    {"smiles": "CCCCCSc1ccn(-c2ccc(Cl)cc2)n1", "note": "[IIA-53]", "values": [
      {"measurement": "lesion area in the treated soybeans relative to the lesion area in the non-treated soybeans", "setting": "Microsphaera diffusa", "result": "≤ 30", "unit": "%"}
    ]},
    {"smiles": "CCCS(=O)(=O)c1nc(-c2ccc(C(C)(C)C)cc2)cs1", "note": "[IIC-16]", "values": [
      {"measurement": "lesion area in the treated tomatoes relative to the lesion area in the non-treated tomatoes", "setting": "Phytophthora infestans", "result": "≤ 30", "unit": "%"}
    ]}
  ]
}
